Measured values reported in patent publication US8674113B2, “Compounds” (Boehringer Ingelheim International GmbH, priority 2010, dated 2014).

Columns and labels:
[1] = biological target: recombinant human mPGES-1 (Homo sapiens (Human), UniProt O14684); test: mPGES-1 enzyme assay (HTRF detection of PGE2); type: biochemical; details: recombinant human mPGES-1 microsomes, PGH2 2 μM, 60 seconds; read-out: mPGES-1 inhibitory effect IC50 in the enzyme assay
Description: Microsomes from Rosetta E. coli bacteria expressing recombinant human mPGES-1 can be derived as described below:
Inoculate 5 ml LB with Ampicilin (50 μg/ml) and Chloramphenicol (34 μg/ml) with bacteria from freeze culture. Incubate 8 h at 37° C. with 200 rpm. Thereafter, inoculate 500-1000 ml LB containing Amp and Chloro with the 5 ml on culture and grow to OD640 of 0.8-1.0. Chill the culture to +4° C. before induction. Induce the culture with IPTG at a final concentration of 400 μM. Express the protein at room temp 18-23° C. with 200 rpm shaking over night.
The following steps can be performed on the following day: • 1. Spin down the cells in 250 ml centrifuge flasks for 15 min at 7000 rpm (Beckmann Coulte Avanti J-E centrifuge) • 2. Dissolve the pellet from 250 ml culture in 12.5 ml homogenization buffer • 3. (15 mM Tris-HCL pH8, 1 mM EDTA pH8, […], 2.5 mM GSH, 1 Tablet Protease inhibitor per 50 ml buffer) • 4. Disintegrate the cells by sonication, 5×10 seconds at 48% amplitude of a 750 W sonifier • 5. Add 2.5 ml MgCl2 (100 mM) and DNase 12.5 μl (0.8 mg/ml) and incubate on ice for 30 min • 6. Spin down the bacteria debris and save the supernatant, 7000 rpm for 15 min • 7. Isolate the protein containing membranes in the supernatant by ultracentrifugation 120000×g for 2 hour at 4° C. (Sorvall T880 rotor). • 8. Discard the supernatant and dissolve the pellet in 20 mM Potassium phosphate buffer pH7.4 (KH2PO4 and K2HPO4) buffer by sonication (5×10 s, 30% of a 50 W sonifier) and aliquot the enzyme and store aliquots at −80° C.
Before each experiment is performed an aliquot of the enzyme is thawed and it can then be dissolved in 0.1 M Potassium phosphate buffer pH7.4 (KH2PO4 and K2HPO4) buffer containing 2.5 mM GSH.
The aim of this assay is to determine the affinity of a test compound for the mPGES-1 enzyme.
47 μl of recombinant human mPGES-1 (˜0.5 μg protein/well) containing microsomal suspension in a buffer containing GSH, (2.5 mmol/L L-Glutathione reduced, dissolved in 0.1 mol/L Phosphat Buffer pH 7.4) is dispensed in a 384-well plate and thereafter 1 μl of the test compound(s) is/are added and incubated for 25 minutes at room temperature. The enzyme reaction is started by the addition of 2 ul PGH2 (final conc 2 μM) disolved in water-free Diglyme. After 60 seconds the reaction is terminated by addition of a stop solution containing FeCl2 (10 μL 0.074 mol/l FeCl2). The samples are diluted between 1:25 in PBS (Phosphate Buffered Saline). 10 μl of the diluted samples are transferred to 384-well low volume plate. In order to quantify the amount of PGE2 that has been formed, a homogenous time resolved fluorescent (HTRF) detecting of PGE2 has been performed using a commercially available kit from Cisbio according to the manufactures recommendation. This HTRF-based assay has been described in detail (see: Goedken et al., J Biomol Screen, 2008, 13(7), 619-625). Briefly, the diluted samples are mixed with 5 μl PGE2-d2 conjugate and 5 μl anti-PGE2 cryptate conjugate. After an incubation period of the plates over night, the fluorescence is measured by the use of an appropriate microplate reader.
The fluorescence of Europium cryptate (maxex=307 nm, maxem=620 nm) and d2-PGE2 (maxex=620 nm, maxem=665 nm) are measured.
The extent of the specific HTRF is measured as a ratio of the emission intensity at 665 nm vs. that at 620 nm at an excitation puts of 320 nm. The quantification plate contains also wells with different concentrations of PGE2 as calibration curve for the calculation of the PGE2 concentrations from the HTRF ratio values.
From all mPGES enzyme assay the background is subtracted and the IC50 is calculated over a nonlinear regression with conventional software.

mPGES-1 in A549 cells = mPGES-1 in A549 cells (Homo sapiens (Human), UniProt O14684); test: A549 cell-based assay (PGE2 formation, 50% human serum); details: IL-1β 5 ng/ml, 10 nM arachidonic acid, 20-24 h, read-out: mPGES-1 inhibitory effect IC50 in the cell assay
Sequence of mPGES-1 in A549 cells (O14684 whole entry): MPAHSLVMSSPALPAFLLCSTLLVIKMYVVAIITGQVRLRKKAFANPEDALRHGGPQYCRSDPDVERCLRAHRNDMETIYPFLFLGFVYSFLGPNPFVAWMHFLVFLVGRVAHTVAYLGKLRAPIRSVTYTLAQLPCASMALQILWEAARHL
Method in brief: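 PGE2 release, read by HTRF and set to 100% for vehicle, gave IC50s from 6-8 point titrations. Human A549 cells were exposed to compound for 20-24 h in medium with 50% human serum, with IL-1β (5 ng/ml) and arachidonic acid (10 nM) as stimulus.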

Sequence of recombinant human mPGES-1 (O14684 whole entry): as above

Structure (SMILES)	IC50 [1] [nM]	IC50 (mPGES-1 in A549 cells) [nM]
Cn1c(Nc2c(Cl)ccc(CNC(=O)C(C)(C)C)c2Cl)nc2cc(C(=O)NCCCC(F)(F)F)c(N3CCC(F)(F)C3)cc21 [Example 46]	3	7
Cn1c(Nc2c(Cl)ccc(CNC(=O)C(C)(C)C)c2Cl)nc2cc(C(=O)Nc3cccc(C(F)(F)F)n3)c(N3CCC(F)(F)C3)cc21 [Example 47]	2	1
Cn1c(Nc2c(Cl)ccc(CNC(=O)C(C)(C)C)c2Cl)nc2cc(C(=O)NC(Cc3ccccc3)C(F)(F)F)c(N3CCC(F)(F)C3)cc21 (centres unmarked) [Example 48]	2	8
CC(C)C(NC(=O)c1cc2nc(Nc3c(Cl)ccc(CNC(=O)C(C)(C)C)c3Cl)n(C)c2cc1N1CCC(F)(F)C1)C(F)(F)F (centres unmarked) [Example 49]	4	4
Cn1c(Nc2c(Cl)ccc(CNC(=O)C(C)(C)C)c2Cl)nc2cc(C(=O)NCC(F)(F)C(F)(F)F)c(N3CCC(F)(F)C3)cc21 [Example 50]	3	2
Cn1c(Nc2c(Cl)ccc(CNC(=O)C(C)(C)C)c2F)nc2cc(C(=O)Nc3ccc(F)c(Cl)c3)c(N3CCC(F)(F)C3)cc21 [Example 51]	3	< 1
Cn1c(Nc2c(Cl)ccc(CNC(=O)C(C)(C)C)c2Cl)nc2cc(C(=O)NCC(F)(F)C(F)(F)F)c(N3CCC(C(F)(F)F)CC3)cc21 [Example 53]	2	1
Cn1c(Nc2c(Cl)ccc(CNC(=O)C(C)(C)C)c2Cl)nc2cc(C(=O)Nc3ccc(F)c(Cl)c3)c(N3CCC(C(F)(F)F)CC3)cc21 [Example 54, N-(3-Chloro-4-fluoro-phenyl)-2-{2,6-dichloro-3-[(2,2-dimethyl-propionylamino)-methyl]-phenylamino}-6-[4-trifluoromethyl-piperidinyl]-1-methyl-1H-benzimidazole-5-carboxylic acid amide]	2	1.4
Cn1c(Nc2c(Cl)ccc(CNC(=O)C(C)(C)C)c2Cl)nc2cc(C(=O)Nc3cccc(C(F)(F)F)n3)c(N3CCC(C(F)(F)F)CC3)cc21 [Example 55]	2	5
Cn1c(Nc2c(Cl)ccc(CNC(=O)C(C)(C)C)c2Cl)nc2cc(C(=O)Nc3ccc(Cl)c(F)c3)c(N3CCC(C(F)(F)F)CC3)cc21 [Example 56]	1	< 1
Cn1c(Nc2c(Cl)ccc(CNC(=O)C(C)(C)C)c2Cl)nc2cc(C(=O)Nc3ccc(OC(F)(F)F)cc3)c(N3CCC(C(F)(F)F)CC3)cc21 [Example 57]	1	1
Cn1c(Nc2c(Cl)ccc(CNC(=O)C(C)(C)C)c2Cl)nc2cc(C(=O)NC3(c4ccc(F)cc4)CC3)c(N3CCC(C(F)(F)F)CC3)cc21 [Example 58]	3	1
Cn1c(Nc2c(Cl)ccc(CNC(=O)C(C)(C)C)c2Cl)nc2cc(C(=O)NC3CCN(CC(F)(F)F)CC3)c(N3CCC(C(F)(F)F)CC3)cc21 [Example 59]	4	< 1
Cn1c(Nc2c(Cl)ccc(CNC(=O)C(C)(C)C)c2Cl)nc2cc(C(=O)NC3CCC(F)(F)CC3)c(N3CCC(C(F)(F)F)CC3)cc21 [Example 60]	1	1
Cn1c(Nc2c(Cl)ccc(CNC(=O)C(C)(C)C)c2Cl)nc2cc(C(=O)N[C@H]3CC[C@@H](C(F)(F)F)CC3)c(N3CCC(C(F)(F)F)CC3)cc21 [Example 61]	2	< 1
Cn1c(Nc2c(Cl)ccc(CNC(=O)C(C)(C)C)c2Cl)nc2cc(C(=O)NCCC(F)(F)F)c(N3CCC(C(F)(F)F)CC3)cc21 [Example 62]	2	< 1

Structure (SMILES)	IC50 [1] [nM]	IC50 (mPGES-1 in A549 cells) [nM]
Cn1c(Nc2c(Cl)ccc(CNC(=O)C(C)(C)C)c2Cl)nc2cc(C(=O)N[C@H]3CC[C@@H](C(F)(F)F)CC3)c(N3CC4CC4C3)cc21 (some centres unmarked) [Example 63]	3	6
Cn1c(Nc2c(Cl)ccc(CNC(=O)C(C)(C)C)c2Cl)nc2cc(C(=O)Nc3ccc(OC(F)(F)F)cc3)c(N3CC4CC4C3)cc21 (centres unmarked) [Example 64]	3	2.6
Cn1c(Nc2c(Cl)ccc(CNC(=O)C(C)(C)C)c2Cl)nc2cc(C(=O)Nc3ccc(F)c(Cl)c3)c(N3CC4CC4C3)cc21 (centres unmarked) [Example 65]	1	1
Cn1c(Nc2c(Cl)ccc(CNC(=O)C(C)(C)C)c2Cl)nc2cc(C(=O)Nc3ccc(Cl)c(F)c3)c(N3CC4CC4C3)cc21 (centres unmarked) [Example 66]	3	1.6
Cn1c(Nc2c(Cl)ccc(CNC(=O)C(C)(C)C)c2Cl)nc2cc(C(=O)N[C@H]3CC[C@H](C(F)(F)F)CC3)c(N3CCOCC3)cc21 [Example 67]	4	2
Cn1c(Nc2c(Cl)ccc(CNC(=O)C(C)(C)C)c2Cl)nc2cc(C(=O)NCC(F)(F)C(F)(F)F)c(N3CCOCC3)cc21 [Example 68]	4	1
Cn1c(Nc2c(Cl)ccc(CNC(=O)C(C)(C)C)c2Cl)nc2cc(C(=O)N[C@H]3CC[C@H](C(F)(F)F)CC3)c(N3CCC(F)(F)CC3)cc21 [Example 69]	2	1
Cn1c(Nc2c(Cl)ccc(CNC(=O)C(C)(C)C)c2Cl)nc2cc(C(=O)NCC(F)(F)C(F)(F)F)c(N3CCC(F)(F)CC3)cc21 [Example 70]	2	2
CC(C)(C)C(=O)NCc1ccc(Cl)c(Nc2nc3cc(C(=O)NCC(F)(F)C(F)(F)F)c(N4CCOCC4)cc3n2CC(F)F)c1Cl [Example 72]	4	4
CC(C)(C)C(=O)NCc1ccc(Cl)c(Nc2nc3cc(C(=O)NCC(F)(F)C(F)(F)F)c(N4CCC(F)(F)CC4)cc3n2CC(F)F)c1Cl [Example 74]	3	4
CC(C)(C)C(=O)NCc1ccc(Cl)c(Nc2nc3cc(C(=O)N[C@H]4CC[C@H](C(F)(F)F)CC4)c(N4CCC(C(F)(F)F)CC4)cc3n2CC(F)F)c1Cl [Example 75]	1	2
CC(C)(C)C(=O)NCc1ccc(Cl)c(Nc2nc3cc(C(=O)NCC(F)(F)C(F)(F)F)c(N4CCC(C(F)(F)F)CC4)cc3n2CC(F)F)c1Cl [Example 76]	1	1
CC1(O)CCN(c2cc3c(cc2C(=O)N[C@H]2CC[C@H](C(F)(F)F)CC2)nc(Nc2c(Cl)ccc(CNC(=O)C(C)(C)F)c2Cl)n3CC(F)F)CC1 [Example 78]	2	< 1
CC(C)(C)C(=O)NCc1ccc(Cl)c(Nc2nc3cc(C(=O)N[C@H]4CC[C@H](C(F)(F)F)CC4)c(N4CC[C@@H](F)C4)cc3n2CC(F)F)c1Cl [Example 79]	3	1
CC(C)(F)C(=O)NCc1ccc(Cl)c(Nc2nc3cc(C(=O)N[C@H]4CC[C@H](C(F)(F)F)CC4)c(N4CCC(O)(C(F)(F)F)CC4)cc3n2CC(F)F)c1Cl [Example 80]	2	1
